Where “and” joins values, the source holds several entries; their conditions need not be identical. Equal entries are not always repeated.
What was measured:
[1] = test system: SOS regulon luxCDABE gene fusions; assay: SOS regulon lux fusions: stress response in liquid LB; type: cell-based, E. coli; conditions: each of the eight SOS fusion strains; at least three concentrations
Protocol: To test the stress responses, one or two single colonies of each selected strain were used to inoculate 5.0 ml of LB medium containing 150 μg/ml of ampicillin. These cultures were grown overnight at 37° C. then diluted by adding 50 μl or 100 μl of the overnight culture into 10.0 ml of fresh LB medium (without ampicillin) and grown with agitation at 37° C. until the culture was in exponential phase with readings on a Klett-Summerson colorimeter containing the red filter of between 10 and 40. These actively growing cultures were immediately used to initiate a stress response experiment by adding 50 μl of cultures to 50 μl of LB medium containing various concentrations of chemical in the wells a 96 well luminometer plate. This division of the actively growing culture at the time of chemical addition ensured identical populations were present when the stress was imposed. Light production was measured in a Dynex ML3000 luminometer at 37° C. The dimensionless units of light production, relative light units (RLU), are obtained by comparison with the light reading from an internal light-emitting diode.
The ability of these promoter-luxCDABE fusions to report activation of the SOS stress response was tested using nalidixic acid, a known, potent chemical inducer. The final concentrations of nalidixic acid were 1, 5, 25, and 125 μg/ml for all but strain DPD2293, which was tested at 80, 40, 20, 10, 5, 2.5, and 1.25 μg/ml.
Specificity of responses was tested by measuring the effect of ethanol on these SOS regulon gene fusions.

[2] = test system: LuxArray 1.0 luxCDABE gene fusions; assay: LuxArray 1.0 solid phase nalidixic acid perturbation; type: cell-based, E. coli; conditions: for Solid expt NA/LB: NA 5 μg/ml; for fold upregulation, nalidixic acid treated to untreated: solid LuxArray, 5 μg/ml, 4 hours
Protocol: The E. coli strains were grown overnight at 37° C. in 40 μl LB medium supplemented with 100 μg/ml ampicillin in a set of sixteen 96-well dishes. These cultures were designated “printing plates” and were used as the cell source to manufacture the arrays. Porous membranes (Biodyne B, Nunc) were sterilized with UV illumination for 10 min then placed in contact with pre-warmed of solid LB growth media in a culture dish (OmniTray, Nunc). Printing of 4×4 subarrays was accomplished using a BioMek 2000 (Beckman Coulter) equipped with a High Density Replication Tool (HDRT). […] After sterilization, the pins are air-dried prior to the next transfer. The E. coli strains in the LuxArray were printed onto an approximately 8×12 cm membrane in two sets of triplicates.
Arrays were printed from fresh overnight cultures onto membranes on plates containing LB media. After 6 hr of growth at 37° C. membranes were moved to pre-warmed plates containing either LB media or LB media supplemented with 5 μg/ml nalidixic acid then replaced at 37° C. to continue growing. Images were collected for each array every two hours from 0-8 hr after relocation using a cooled CCD camera (Fluor Chem 8000: f0.85 lens, 2 min exposure, AlphaInnotech).
Spot intensity of each image was determined using ArrayVision™ (Imaging Research, Toronto, Canada) and the resultant pixel density measurements imported into a template with identifiers for each spot. The average signal for each of the triplicate spots was calculated. The background signal, which results from cross illumination of neighboring spots, was calculated by finding the median of the 24 spots containing a strain with the parental plasmid on each of the triplicate arrays and the calculating the average of the three medians. This background signal was calculated at each of the time points and subtracted from each measurement at the corresponding time point. All negative numbers were converted to zero.
Data normalization to account for inhibition of growth by nalidixic acid was accomplished by finding the sum of the averaged signals of each spot in the array for each treatment at each time point. A normalization factor (NF) was calculated as follows:
NF=Total array signal (time zero, LB control)/Total array signal (time x, condition y)
Each measurement was multiplied by NF to yield a normalized signal. Ratios the nalidixic acid treated spot to the corresponding control spot were calculated using the normalized data.
The ratios of the normalized data were compared for each of the […] spots resulting from independent cultures in the array. […] Twelve gene fusions were selected by these criteria (Table 15).

CCn1cc(C(=O)O)c(=O)c2ccc(C)nc21 [Nalidixic acid, nalidixic acid]
bioluminescence vs untreated control [1]: increased bioluminescence
Solid expt NA/LB ([2]; dinG ybiB lux-a.pk0024.f5, t = 2 hr, duplicate spots): 2.5 and 3.4
Solid expt NA/LB ([2]; dinG ybiB lux-a.pk0024.f5, t = 4 hr): 3.7 and 4.2
Solid expt NA/LB ([2]; dinG ybiB lux-a.pk0024.f5, t = 6 hr): 3.5 and 3.1
Solid expt NA/LB ([2]; dinG ybiB lux-a.pk0024.f5, t = 8 hr): 2.9 and 2.6
Solid expt NA/LB ([2]; dinP lux-a.pk055.a3, t = 2 hr): 3.1 and 5.5
Solid expt NA/LB ([2]; dinP lux-a.pk055.a3, t = 6 hr): 4.2 and 8.1
Solid expt NA/LB ([2]; frvR frvX frvB frvA lux-a.pk046.e6, t = 2 hr): 2.8 and 2.1
Solid expt NA/LB ([2]; frvR frvX frvB frvA lux-a.pk046.e6, t = 4 hr): 2.3
Solid expt NA/LB ([2]; lpxA lpxB rnhB dnaE lux-a.pk061.c3, t = 2 hr): 3.5 and 2.7
Solid expt NA/LB ([2]; lpxA lpxB rnhB dnaE lux-a.pk061.c3, t = 4 hr): 3.1 and 3.5
Solid expt NA/LB ([2]; lpxA lpxB rnhB dnaE lux-a.pk061.c3, t = 6 hr): 2.8 and 3.0
Solid expt NA/LB ([2]; lpxA lpxB rnhB dnaE lux-a.pk061.c3, t = 8 hr): 1.7 and 1.9
Solid expt NA/LB ([2]; lux-a.pk0015.d6, t = 2 hr): 2.3 and 2.2
Solid expt NA/LB ([2]; lux-a.pk0015.d6, t = 4 hr): 6.4 and 4.1
Solid expt NA/LB ([2]; lux-a.pk0015.d6, t = 6 hr): 2.7 and 1.9
Solid expt NA/LB ([2]; lux-a.pk0015.d6, t = 8 hr): 0.6 and 0.8
Solid expt NA/LB ([2]; lux-a.pk0019.g1, t = 2 hr): 2.5 and 4.4
Solid expt NA/LB ([2]; lux-a.pk0019.g1, t = 4 hr): 7.7 and 8.2
Solid expt NA/LB ([2]; lux-a.pk0019.g1, t = 6 hr): 9.7 and 15.5
Solid expt NA/LB ([2]; lux-a.pk0019.g1, t = 8 hr): 7.1 and 10.2
Solid expt NA/LB ([2]; lux-a.pk033.c5, t = 2 hr): 3.7 and 2.1
Solid expt NA/LB ([2]; lux-a.pk033.c5, t = 4 hr): 4.3 and 3.1
Solid expt NA/LB ([2]; lux-a.pk033.c5, t = 6 hr): 3.2 and 3.3
Solid expt NA/LB ([2]; lux-a.pk033.c5, t = 8 hr): 2.6 and 2.5
Solid expt NA/LB ([2]; oraA lux-a.pk058.f5, t = 2 hr): 5.1 and 4.7
Solid expt NA/LB ([2]; oraA lux-a.pk058.f5, t = 4 hr): 7.9 and 7.7
Solid expt NA/LB ([2]; oraA lux-a.pk058.f5, t = 6 hr): 5.9 and 5.6
Solid expt NA/LB ([2]; oraA lux-a.pk058.f5, t = 8 hr): 3.9 and 3.8
fold upregulation, nalidixic acid treated to untreated ([2]; ruvA-lux, duplicate spots): 1.7 fold and 2.1 fold
Solid expt NA/LB ([2]; uvrA lux-a.pk0001.b6, t = 2 hr): 2.5 and 2.9
Solid expt NA/LB ([2]; uvrA lux-a.pk0001.b6, t = 4 hr): 2.3 and 2.4
Solid expt NA/LB ([2]; uvrA lux-a.pk0001.b6, t = 6 hr): 1.6 and 1.1
Solid expt NA/LB ([2]; uvrA lux-a.pk0001.b6, t = 8 hr): 1.0 and 0.6
fold upregulation, nalidixic acid treated to untreated ([2]; uvrD-lux, duplicate spots): 1.6 fold and 1.9 fold
Solid expt NA/LB ([2]; yaaF lux-a.pk031.e7, t = 2 hr): 2.1 and 2.0
Solid expt NA/LB ([2]; yaaF lux-a.pk031.e7, t = 4 hr): 2.0 and 2.1
Solid expt NA/LB ([2]; yaaF lux-a.pk031.e7, t = 6 hr): 1.3 and 1.8
Solid expt NA/LB ([2]; yaaF lux-a.pk031.e7, t = 8 hr): 1.0 and 1.5
Solid expt NA/LB ([2]; yfhJ fdx hscA yfhE lux-a.pk0019.g2, t = 2 hr): 2.1
Solid expt NA/LB ([2]; yfhJ fdx hscA yfhE lux-a.pk0019.g2, t = 4 hr): 2.0 and 2.2
Solid expt NA/LB ([2]; yfhJ fdx hscA yfhE lux-a.pk0019.g2, t = 6 hr): 1.7 and 1.5
Solid expt NA/LB ([2]; yfhJ fdx hscA yfhE lux-a.pk0019.g2, t = 8 hr): 1.4 and 1.3
Solid expt NA/LB ([2]; yigN lux-a.pk046.f11, t = 4 hr): 2.5 and 4.3
